Like-named read-outs stand apart in the source and are kept apart here.
Tests used:
[1] = molecular target: T1, Aβ42 aggregate (Homo sapiens, UniProt P05067); assay: Evaluation experiment of binding to amyloid β (filter radioactivity); settings: Aβ42 aggregate 30 nmol/L, incubation 3 hours
T1 construct: Aβ (1-42) peptide; purchased Peptide Institute, Inc
Procedure: 0.5 mg of Aβ (1-42) peptide (purchased from Peptide Institute, Inc.) was dissolved in 2 mL of a PBS buffer containing 1 mmol/L of EDTA and incubated at 37° C. for 42 hours, thus preparing an Aβ42 aggregate. A glass tube was charged with a 10 vol % ethanol aqueous solution (900 μL), Aβ42 aggregate (50 μL, final concentration 30 nmol/L), and radioactive iodine-labeled compound 1, radioactive iodine-labeled compound 2, or radioactive iodine-labeled compound 3 (each 50 μL, 0.018-0.097 μCi), and incubation was carried out for 3 hours. B/F separation was carried out using a cell harvester (Brandel, M-24), and the radioactivity on the filter was measured in a γ counter. The proportion (%) of the radioactivity count on the filter relative to the radioactivity count of each sample used was determined, and binding of each compound to the Aβ42 aggregate was evaluated.
As a control, 4-dimethylamino-4′-iodochalcone (hereinafter, called a chalcone derivative) was prepared in accordance with a method described in the literature (Ono et al., Bioorg Med Chem, 15, 6802-6809, 2007), and the same experiment was carried out (radioactivity count in sample: […]-0.37 kBq (0.023-0.01 μCi)).

[2] = mice
Procedure: Mice were decapitated after 2, 10, 30, and 60 minutes, and then each organ was then removed after blood collection, and radiation counts were measured in a γ counter.

[3] = molecular target: tau protein aggregate (Homo sapiens, UniProt P10636); settings: tau 0.37 μmol/L, incubated 1 to 1.5 hours, PD-10 column
Procedure: Mixed solutions of a tau protein aggregate (final concentration 0.37 μmol/L, prepared in Example 9) or an non-aggregated tau protein (final concentration 0.37 μmol/L) and radioactive iodine-labeled compound 1 (2.0 kBq (0.055 μCi)), radioactive iodine-labeled compound 2 (20 kBq (0.55 μCi)) or radioactive iodine-labeled form 3 (2.0 kBq (0.055 μCi)) were incubated for 1 hour to 1.5 hours, and then subjected to size exclusion chromatography (PD-10 column (GE Healthcare Japan), eluent: phosphate buffered-saline (PBS)). Subsequently, the radioactivity of an eluted fraction of the tau protein aggregate or the non-aggregated tau protein was measured in a γ counter.

[4] = 2 minutes after tail vein administration
[5] = 10 minutes after tail vein administration
[6] = 30 minutes after tail vein administration
[7] = 60 minutes after tail vein administration

T1 sequence (P05067 672-713 limits assumed): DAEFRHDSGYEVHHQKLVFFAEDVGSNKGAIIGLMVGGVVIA
tau protein aggregate, sequence (P10636 1-441 isoform P10636-8): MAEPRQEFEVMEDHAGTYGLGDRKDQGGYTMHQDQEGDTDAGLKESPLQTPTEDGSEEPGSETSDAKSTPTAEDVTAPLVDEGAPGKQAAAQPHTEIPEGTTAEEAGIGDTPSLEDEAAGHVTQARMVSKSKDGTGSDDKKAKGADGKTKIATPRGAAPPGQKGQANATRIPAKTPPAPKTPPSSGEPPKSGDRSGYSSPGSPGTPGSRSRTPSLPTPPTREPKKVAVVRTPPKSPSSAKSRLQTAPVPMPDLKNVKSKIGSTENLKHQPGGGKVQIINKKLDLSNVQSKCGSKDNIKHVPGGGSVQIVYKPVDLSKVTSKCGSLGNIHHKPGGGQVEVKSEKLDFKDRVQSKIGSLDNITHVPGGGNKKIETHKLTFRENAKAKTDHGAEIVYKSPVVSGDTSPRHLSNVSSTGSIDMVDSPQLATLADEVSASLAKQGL

CCOC(=O)CN1C(=O)/C(=C/c2ccc(-c3cccc([125I])c3)o2)SC1=S [Radioactive iodine-labeled compound 1, (Z)-Ethyl-2-(5-((5-(3-(^125I)iodophenyl)furan-2-yl)methylene)-4-oxo-2-thioxothiazolidin-3-yl) acetate]
Binding to the Aβ42 aggregate (proportion of radioactivity count on the filter) [1]: significantly lower | Amount of radioactivity in organ: Blood [2, 4]: 6.70 ± 0.53 % ID/g | Amount of radioactivity in organ: Blood [2, 5]: 3.58 ± 0.37 % ID/g | Amount of radioactivity in organ: Blood [2, 6]: 2.27 ± 0.44 % ID/g | Amount of radioactivity in organ: Blood [2, 7]: 1.59 ± 0.14 % ID/g | Amount of radioactivity in organ: Brain [2, 4]: 0.23 ± 0.02 % ID/g | Amount of radioactivity in organ: Brain [2, 5]: 0.16 ± 0.01 % ID/g | Amount of radioactivity in organ: Brain [2, 6]: 0.15 ± 0.03 % ID/g | Amount of radioactivity in organ: Brain [2, 7]: 0.11 ± 0.02 % ID/g | Amount of radioactivity in organ: Heart [2, 4]: 9.41 ± 0.49 % ID/g | Amount of radioactivity in organ: Heart [2, 5]: 5.05 ± 0.39 % ID/g | Amount of radioactivity in organ: Heart [2, 6]: 2.38 ± 0.38 % ID/g | Amount of radioactivity in organ: Heart [2, 7]: 1.39 ± 0.19 % ID/g | Amount of radioactivity in organ: Intestine [2, 4]: 1.77 ± 0.33 % ID/g | Amount of radioactivity in organ: Intestine [2, 5]: 7.97 ± 1.24 % ID/g | Amount of radioactivity in organ: Intestine [2, 6]: 15.1 ± 1.82 % ID/g | Amount of radioactivity in organ: Intestine [2, 7]: 21.0 ± 2.73 % ID/g | Amount of radioactivity in organ: Kidney [2, 4]: 8.50 ± 0.83 % ID/g | Amount of radioactivity in organ: Kidney [2, 5]: 7.64 ± 0.69 % ID/g | Amount of radioactivity in organ: Kidney [2, 6]: 6.42 ± 1.17 % ID/g | Amount of radioactivity in organ: Kidney [2, 7]: 3.91 ± 0.18 % ID/g | Amount of radioactivity in organ: Liver [2, 4]: 43.1 ± 2.07 % ID/g | Amount of radioactivity in organ: Liver [2, 5]: 29.5 ± 2.17 % ID/g | Amount of radioactivity in organ: Liver [2, 6]: 14.7 ± 2.27 % ID/g | Amount of radioactivity in organ: Liver [2, 7]: 11.3 ± 0.87 % ID/g | Amount of radioactivity in organ: Lung [2, 4]: 13.6 ± 1.00 % ID/g | Amount of radioactivity in organ: Lung [2, 5]: 4.44 ± 0.52 % ID/g | Amount of radioactivity in organ: Lung [2, 6]: 2.31 ± 0.46 % ID/g | Amount of radioactivity in organ: Lung [2, 7]: 1.56 ± 0.22 % ID/g | Amount of radioactivity in organ: Pancreas [2, 4]: 1.74 ± 0.19 % ID/g | Amount of radioactivity in organ: Pancreas [2, 5]: 1.75 ± 0.18 % ID/g | Amount of radioactivity in organ: Pancreas [2, 6]: 1.16 ± 0.17 % ID/g | Amount of radioactivity in organ: Pancreas [2, 7]: 0.73 ± 0.08 % ID/g | Amount of radioactivity in organ: Spleen [2, 4]: 6.70 ± 0.54 % ID/g | Amount of radioactivity in organ: Spleen [2, 5]: 4.11 ± 0.80 % ID/g | Amount of radioactivity in organ: Spleen [2, 6]: 2.66 ± 0.84 % ID/g | Amount of radioactivity in organ: Spleen [2, 7]: 1.94 ± 0.40 % ID/g | Amount of radioactivity in organ: Stomach [2, 4]: 0.75 ± 0.17 % ID/g | Amount of radioactivity in organ: Stomach [2, 5]: 1.53 ± 0.44 % ID/g | Amount of radioactivity in organ: Stomach [2, 6]: 3.65 ± 0.78 % ID/g | Amount of radioactivity in organ: Stomach [2, 7]: 4.51 ± 0.38 % ID/g | Radioactivity of eluted fraction: aggregated tau vs non aggregated tau vs buffer [3]: specifically binding to a tau protein aggregate

CCOC(=O)CN1C(=O)/C(=C/c2ccc(-c3cccc([125I])c3)o2)NC1=S [Radioactive iodine-labeled compound 2, (Z)-Ethyl-2-(4-((5-(3-(^125I)iodophenyl)furan-2-yl)methylene)-5-oxo-2-thioxoimidazolidin-l-yl) acetate]
Binding to the Aβ42 aggregate (proportion of radioactivity count on the filter) [1]: significantly lower | Amount of radioactivity in organ: Blood [2, 4]: 9.49 ± 0.82 % ID/g | Amount of radioactivity in organ: Blood [2, 5]: 2.38 ± 0.88 % ID/g | Amount of radioactivity in organ: Blood [2, 6]: 1.79 ± 0.11 % ID/g | Amount of radioactivity in organ: Blood [2, 7]: 1.50 ± 0.10 % ID/g | Amount of radioactivity in organ: Brain [2, 4]: 0.57 ± 0.07 % ID/g | Amount of radioactivity in organ: Brain [2, 5]: 0.32 ± 0.02 % ID/g | Amount of radioactivity in organ: Brain [2, 6]: 0.18 ± 0.02 % ID/g | Amount of radioactivity in organ: Brain [2, 7]: 0.10 ± 0.03 % ID/g | Amount of radioactivity in organ: Heart [2, 4]: 7.02 ± 1.23 % ID/g | Amount of radioactivity in organ: Heart [2, 5]: 2.05 ± 0.29 % ID/g | Amount of radioactivity in organ: Heart [2, 6]: 1.19 ± 0.39 % ID/g | Amount of radioactivity in organ: Heart [2, 7]: 1.44 ± 0.39 % ID/g | Amount of radioactivity in organ: Intestine [2, 4]: 1.85 ± 0.26 % ID/g | Amount of radioactivity in organ: Intestine [2, 5]: 7.88 ± 1.46 % ID/g | Amount of radioactivity in organ: Intestine [2, 6]: 17.7 ± 2.22 % ID/g | Amount of radioactivity in organ: Intestine [2, 7]: 23.4 ± 5.37 % ID/g | Amount of radioactivity in organ: Kidney [2, 4]: 9.21 ± 0.68 % ID/g | Amount of radioactivity in organ: Kidney [2, 5]: 9.11 ± 1.15 % ID/g | Amount of radioactivity in organ: Kidney [2, 6]: 3.86 ± 0.85 % ID/g | Amount of radioactivity in organ: Kidney [2, 7]: 2.68 ± 0.75 % ID/g | Amount of radioactivity in organ: Liver [2, 4]: 32.2 ± 1.67 % ID/g | Amount of radioactivity in organ: Liver [2, 5]: 32.1 ± 2.09 % ID/g | Amount of radioactivity in organ: Liver [2, 6]: 22.6 ± 3.42 % ID/g | Amount of radioactivity in organ: Liver [2, 7]: 20.2 ± 1.93 % ID/g | Amount of radioactivity in organ: Lung [2, 4]: 10.8 ± 1.28 % ID/g | Amount of radioactivity in organ: Lung [2, 5]: 3.89 ± 0.32 % ID/g | Amount of radioactivity in organ: Lung [2, 6]: 2.09 ± 0.43 % ID/g | Amount of radioactivity in organ: Lung [2, 7]: 1.70 ± 0.45 % ID/g | Amount of radioactivity in organ: Pancreas [2, 4]: 1.79 ± 0.27 % ID/g | Amount of radioactivity in organ: Pancreas [2, 5]: 0.98 ± 0.08 % ID/g | Amount of radioactivity in organ: Pancreas [2, 6]: 0.56 ± 0.10 % ID/g | Amount of radioactivity in organ: Pancreas [2, 7]: 0.45 ± 0.08 % ID/g | Amount of radioactivity in organ: Spleen [2, 4]: 9.16 ± 2.04 % ID/g | Amount of radioactivity in organ: Spleen [2, 5]: 12.2 ± 2.28 % ID/g | Amount of radioactivity in organ: Spleen [2, 6]: 13.6 ± 4.29 % ID/g | Amount of radioactivity in organ: Spleen [2, 7]: 10.0 ± 2.49 % ID/g | Amount of radioactivity in organ: Stomach [2, 4]: 0.93 ± 0.36 % ID/g | Amount of radioactivity in organ: Stomach [2, 5]: 3.39 ± 3.03 % ID/g | Amount of radioactivity in organ: Stomach [2, 6]: 3.39 ± 2.98 % ID/g | Amount of radioactivity in organ: Stomach [2, 7]: 5.32 ± 2.68 % ID/g | Radioactivity of eluted fraction: aggregated tau vs non aggregated tau vs buffer [3]: specifically binding to a tau protein aggregate

— US8476449B2, “Radioactive iodine labeled organic compound or salt thereof” (Nihon Medi-Physics Co., Ltd., priority 2010, dated 2013)
